Measurements published in ChEMBL document CHEMBL1156804, “Potent inhibitors of furin and furin-like proprotein convertases containing decarboxylated P1 arginine mimetics” (J Med Chem, 2010).
Residues, ends and D or L forms follow the SMILES beside them. *: point of attachment. Agmatine = N=C(N)NCCCCN*; PhAc = O=C(Cc1ccccc1)*

How the values were obtained:
[1] = target: Furin (Homo sapiens, UniProt P09958)
[2] = target: T1, Proprotein convertase subtilisin/kexin type 6 (Homo sapiens, UniProt P29122); assay: Inhibition of human PACE4 expressed in Drosophila schneider 2 cells by fluorescence assay; format: cell-based
T1 sequence (P29122 whole entry): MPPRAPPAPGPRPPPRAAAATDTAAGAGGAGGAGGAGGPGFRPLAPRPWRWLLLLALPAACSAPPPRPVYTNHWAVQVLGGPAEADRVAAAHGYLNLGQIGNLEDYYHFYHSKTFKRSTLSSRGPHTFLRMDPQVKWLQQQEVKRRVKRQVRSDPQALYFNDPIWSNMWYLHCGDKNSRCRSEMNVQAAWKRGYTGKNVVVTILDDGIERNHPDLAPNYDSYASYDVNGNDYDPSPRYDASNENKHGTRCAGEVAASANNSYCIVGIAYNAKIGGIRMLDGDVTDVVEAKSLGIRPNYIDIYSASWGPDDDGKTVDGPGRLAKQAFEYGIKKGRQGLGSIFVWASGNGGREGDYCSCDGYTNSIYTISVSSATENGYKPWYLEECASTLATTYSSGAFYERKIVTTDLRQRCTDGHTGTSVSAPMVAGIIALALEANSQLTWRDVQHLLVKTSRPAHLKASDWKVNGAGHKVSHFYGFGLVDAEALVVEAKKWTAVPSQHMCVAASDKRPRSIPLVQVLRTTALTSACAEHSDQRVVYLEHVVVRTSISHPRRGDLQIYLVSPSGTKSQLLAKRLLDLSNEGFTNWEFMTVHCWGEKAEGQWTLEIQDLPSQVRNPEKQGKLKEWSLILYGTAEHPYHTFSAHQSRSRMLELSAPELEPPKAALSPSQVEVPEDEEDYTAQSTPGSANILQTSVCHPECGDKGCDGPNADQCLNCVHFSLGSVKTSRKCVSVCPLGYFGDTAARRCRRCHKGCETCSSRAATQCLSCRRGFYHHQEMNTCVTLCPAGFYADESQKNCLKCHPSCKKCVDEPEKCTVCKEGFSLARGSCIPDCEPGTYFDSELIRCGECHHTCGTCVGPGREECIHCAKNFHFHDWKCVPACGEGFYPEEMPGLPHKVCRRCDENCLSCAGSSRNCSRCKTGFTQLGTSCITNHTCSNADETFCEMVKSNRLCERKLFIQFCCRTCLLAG

[3] = target: Proprotein convertase subtilisin/kexin type 5 (Homo sapiens, UniProt Q92824); assay: Inhibition of human PC5/6 expressed in Drosophila schneider 2 cells by fluorescence assay; format: cell-based
[4] = target: T2, Proprotein convertase subtilisin/kexin type 7 (Homo sapiens, UniProt Q16549); assay: Inhibition of human PC7 expressed in Drosophila schneider 2 cells by fluorescence assay; format: cell-based
T2 sequence (Q16549 whole entry): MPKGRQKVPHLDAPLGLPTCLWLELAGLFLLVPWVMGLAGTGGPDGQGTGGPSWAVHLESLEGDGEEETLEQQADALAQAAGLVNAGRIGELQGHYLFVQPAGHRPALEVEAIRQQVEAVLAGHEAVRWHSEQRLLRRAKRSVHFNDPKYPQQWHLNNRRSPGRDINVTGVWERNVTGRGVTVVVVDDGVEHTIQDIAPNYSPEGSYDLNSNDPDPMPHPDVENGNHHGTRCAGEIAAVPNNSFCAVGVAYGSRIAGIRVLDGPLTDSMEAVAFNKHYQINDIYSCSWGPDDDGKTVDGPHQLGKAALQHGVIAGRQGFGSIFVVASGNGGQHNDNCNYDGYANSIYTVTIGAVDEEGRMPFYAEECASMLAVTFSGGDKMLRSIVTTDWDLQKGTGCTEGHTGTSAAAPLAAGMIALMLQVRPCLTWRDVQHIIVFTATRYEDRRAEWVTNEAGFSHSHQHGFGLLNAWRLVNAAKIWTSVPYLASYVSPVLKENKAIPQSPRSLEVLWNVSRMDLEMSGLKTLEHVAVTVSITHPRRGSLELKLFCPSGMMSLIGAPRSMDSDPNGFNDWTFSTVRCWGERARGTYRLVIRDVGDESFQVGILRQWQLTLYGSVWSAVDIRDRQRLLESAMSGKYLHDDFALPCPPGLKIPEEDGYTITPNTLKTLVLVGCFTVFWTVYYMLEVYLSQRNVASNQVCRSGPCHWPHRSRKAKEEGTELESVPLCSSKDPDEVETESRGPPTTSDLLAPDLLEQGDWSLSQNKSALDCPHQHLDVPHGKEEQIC

[5] = target: T3, Neuroendocrine convertase 1 (Homo sapiens, UniProt P29120); assay: Inhibition of human PC1/3 expressed in Drosophila schneider 2 cells by fluorescence assay; format: cell-based
T3 sequence (P29120 whole entry): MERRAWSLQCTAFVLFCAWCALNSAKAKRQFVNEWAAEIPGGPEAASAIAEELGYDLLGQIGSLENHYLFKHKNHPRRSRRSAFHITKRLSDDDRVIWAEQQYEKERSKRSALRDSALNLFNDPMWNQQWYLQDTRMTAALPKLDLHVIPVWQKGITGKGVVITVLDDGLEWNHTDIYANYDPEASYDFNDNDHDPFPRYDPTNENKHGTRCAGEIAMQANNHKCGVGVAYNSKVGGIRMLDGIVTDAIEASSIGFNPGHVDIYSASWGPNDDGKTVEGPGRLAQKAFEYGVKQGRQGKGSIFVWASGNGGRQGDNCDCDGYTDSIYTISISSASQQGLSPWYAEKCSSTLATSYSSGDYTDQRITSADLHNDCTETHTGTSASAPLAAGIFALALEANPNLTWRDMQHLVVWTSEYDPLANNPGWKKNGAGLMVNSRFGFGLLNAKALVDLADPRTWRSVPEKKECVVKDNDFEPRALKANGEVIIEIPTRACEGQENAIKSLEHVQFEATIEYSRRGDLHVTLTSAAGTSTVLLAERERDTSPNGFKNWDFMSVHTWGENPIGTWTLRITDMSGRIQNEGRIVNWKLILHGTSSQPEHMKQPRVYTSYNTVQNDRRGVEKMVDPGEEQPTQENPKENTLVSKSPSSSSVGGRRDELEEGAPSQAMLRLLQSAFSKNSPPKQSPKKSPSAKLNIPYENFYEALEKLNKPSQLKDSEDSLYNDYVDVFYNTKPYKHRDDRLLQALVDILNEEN

[6] = target: T4, Neuroendocrine convertase 2 (Homo sapiens, UniProt P16519); assay: Inhibition of human PC2 expressed in Drosophila schneider 2 cells by fluorescence assay; format: cell-based
T4 sequence (P16519 whole entry): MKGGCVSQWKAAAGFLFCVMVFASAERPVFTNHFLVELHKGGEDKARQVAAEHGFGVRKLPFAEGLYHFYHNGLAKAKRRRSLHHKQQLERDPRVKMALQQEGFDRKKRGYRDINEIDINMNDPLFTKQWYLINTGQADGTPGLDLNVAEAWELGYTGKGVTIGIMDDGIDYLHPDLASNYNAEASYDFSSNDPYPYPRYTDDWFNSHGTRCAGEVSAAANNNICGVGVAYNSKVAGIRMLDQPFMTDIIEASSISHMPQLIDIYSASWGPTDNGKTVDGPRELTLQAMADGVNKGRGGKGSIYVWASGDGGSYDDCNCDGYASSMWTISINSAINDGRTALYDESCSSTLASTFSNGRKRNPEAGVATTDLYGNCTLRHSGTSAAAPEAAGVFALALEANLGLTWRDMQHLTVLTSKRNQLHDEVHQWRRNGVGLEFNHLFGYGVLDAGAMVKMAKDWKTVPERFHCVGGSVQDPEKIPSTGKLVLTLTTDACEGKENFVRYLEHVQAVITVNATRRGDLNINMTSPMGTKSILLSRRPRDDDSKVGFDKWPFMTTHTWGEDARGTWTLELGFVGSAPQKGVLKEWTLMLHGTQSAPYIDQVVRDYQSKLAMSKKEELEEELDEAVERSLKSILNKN

[7] = target: Prothrombin (Homo sapiens, UniProt P00734); assay: Inhibition of thrombin
[8] = target: Coagulation factor X (Homo sapiens, UniProt P00742); assay: Inhibition of factor 10a
[9] = target: Plasminogen (Homo sapiens, UniProt P00747); assay: Inhibition of plasmin
[10] = cells; format: cell-based; conditions: Canis lupus familiaris, MDCK

Sequence of Proprotein convertase subtilisin/kexin type 5 (Q92824 whole entry): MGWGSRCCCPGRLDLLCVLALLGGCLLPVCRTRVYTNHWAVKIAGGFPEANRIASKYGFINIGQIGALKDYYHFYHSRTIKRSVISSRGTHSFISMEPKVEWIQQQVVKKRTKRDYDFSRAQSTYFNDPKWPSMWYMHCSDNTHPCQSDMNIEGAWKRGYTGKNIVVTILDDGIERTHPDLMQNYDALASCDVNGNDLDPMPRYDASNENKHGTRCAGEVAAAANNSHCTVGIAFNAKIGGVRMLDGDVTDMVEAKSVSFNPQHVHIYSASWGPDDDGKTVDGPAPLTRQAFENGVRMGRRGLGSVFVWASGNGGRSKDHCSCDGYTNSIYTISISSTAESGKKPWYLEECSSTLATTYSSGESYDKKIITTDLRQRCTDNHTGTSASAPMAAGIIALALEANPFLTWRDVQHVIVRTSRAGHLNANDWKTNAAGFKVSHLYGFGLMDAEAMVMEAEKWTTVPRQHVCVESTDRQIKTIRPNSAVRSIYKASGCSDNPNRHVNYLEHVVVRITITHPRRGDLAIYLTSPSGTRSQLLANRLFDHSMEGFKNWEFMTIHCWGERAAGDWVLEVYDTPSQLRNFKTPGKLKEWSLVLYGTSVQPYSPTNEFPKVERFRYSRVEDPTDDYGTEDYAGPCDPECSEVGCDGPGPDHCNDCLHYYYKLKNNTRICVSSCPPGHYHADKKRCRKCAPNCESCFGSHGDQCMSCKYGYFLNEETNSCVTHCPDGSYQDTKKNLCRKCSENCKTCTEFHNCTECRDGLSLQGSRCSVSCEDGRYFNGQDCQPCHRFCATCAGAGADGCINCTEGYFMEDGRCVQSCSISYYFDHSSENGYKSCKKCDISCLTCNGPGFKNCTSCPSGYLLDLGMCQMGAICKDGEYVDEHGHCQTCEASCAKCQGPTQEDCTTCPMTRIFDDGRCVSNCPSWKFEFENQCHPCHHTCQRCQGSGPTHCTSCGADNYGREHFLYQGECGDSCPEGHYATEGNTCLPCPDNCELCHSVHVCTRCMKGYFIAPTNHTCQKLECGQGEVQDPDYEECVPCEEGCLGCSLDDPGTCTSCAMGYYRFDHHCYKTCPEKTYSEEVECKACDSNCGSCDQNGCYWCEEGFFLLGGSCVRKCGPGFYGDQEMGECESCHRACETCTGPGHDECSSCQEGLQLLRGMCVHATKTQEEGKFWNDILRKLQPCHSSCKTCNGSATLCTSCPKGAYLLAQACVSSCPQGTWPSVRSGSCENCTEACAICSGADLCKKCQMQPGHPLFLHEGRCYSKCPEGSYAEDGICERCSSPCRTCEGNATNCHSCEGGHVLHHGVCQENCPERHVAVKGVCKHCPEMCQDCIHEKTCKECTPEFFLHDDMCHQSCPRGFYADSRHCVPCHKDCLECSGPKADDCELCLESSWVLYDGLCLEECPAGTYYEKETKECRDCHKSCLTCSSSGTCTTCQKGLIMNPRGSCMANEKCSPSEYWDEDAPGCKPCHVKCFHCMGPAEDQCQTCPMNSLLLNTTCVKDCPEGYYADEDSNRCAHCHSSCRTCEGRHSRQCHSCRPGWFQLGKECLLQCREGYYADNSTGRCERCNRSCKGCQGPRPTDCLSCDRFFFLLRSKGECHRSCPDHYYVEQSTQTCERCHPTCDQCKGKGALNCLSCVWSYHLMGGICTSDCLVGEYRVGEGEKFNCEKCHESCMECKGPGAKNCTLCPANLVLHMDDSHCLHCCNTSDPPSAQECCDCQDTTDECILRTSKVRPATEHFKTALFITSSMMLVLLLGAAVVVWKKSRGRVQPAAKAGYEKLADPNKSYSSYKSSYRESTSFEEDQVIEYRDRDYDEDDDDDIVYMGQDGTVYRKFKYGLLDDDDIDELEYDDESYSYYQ
Sequence of Furin (P09958 whole entry): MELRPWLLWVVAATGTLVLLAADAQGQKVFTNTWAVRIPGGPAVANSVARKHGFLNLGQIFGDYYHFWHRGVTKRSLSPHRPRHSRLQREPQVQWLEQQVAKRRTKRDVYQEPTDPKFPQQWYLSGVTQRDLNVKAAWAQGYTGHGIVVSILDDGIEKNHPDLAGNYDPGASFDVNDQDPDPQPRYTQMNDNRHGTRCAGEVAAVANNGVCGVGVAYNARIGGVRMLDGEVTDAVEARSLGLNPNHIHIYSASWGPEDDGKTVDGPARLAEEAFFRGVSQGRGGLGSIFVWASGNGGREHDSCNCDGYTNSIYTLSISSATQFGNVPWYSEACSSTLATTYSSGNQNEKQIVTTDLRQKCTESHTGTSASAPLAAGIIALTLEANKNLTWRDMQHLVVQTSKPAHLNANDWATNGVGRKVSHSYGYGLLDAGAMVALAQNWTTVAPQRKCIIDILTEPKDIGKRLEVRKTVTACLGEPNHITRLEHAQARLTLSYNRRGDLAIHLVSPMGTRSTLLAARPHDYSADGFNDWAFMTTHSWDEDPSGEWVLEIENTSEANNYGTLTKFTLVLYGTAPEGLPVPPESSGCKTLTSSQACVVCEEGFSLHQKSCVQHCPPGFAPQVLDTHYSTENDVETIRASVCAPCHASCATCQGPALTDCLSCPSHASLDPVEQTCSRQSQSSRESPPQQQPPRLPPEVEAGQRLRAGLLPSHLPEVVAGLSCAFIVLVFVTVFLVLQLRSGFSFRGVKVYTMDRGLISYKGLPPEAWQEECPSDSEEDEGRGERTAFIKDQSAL
Sequence of Plasminogen (P00747 97-580 limits assumed): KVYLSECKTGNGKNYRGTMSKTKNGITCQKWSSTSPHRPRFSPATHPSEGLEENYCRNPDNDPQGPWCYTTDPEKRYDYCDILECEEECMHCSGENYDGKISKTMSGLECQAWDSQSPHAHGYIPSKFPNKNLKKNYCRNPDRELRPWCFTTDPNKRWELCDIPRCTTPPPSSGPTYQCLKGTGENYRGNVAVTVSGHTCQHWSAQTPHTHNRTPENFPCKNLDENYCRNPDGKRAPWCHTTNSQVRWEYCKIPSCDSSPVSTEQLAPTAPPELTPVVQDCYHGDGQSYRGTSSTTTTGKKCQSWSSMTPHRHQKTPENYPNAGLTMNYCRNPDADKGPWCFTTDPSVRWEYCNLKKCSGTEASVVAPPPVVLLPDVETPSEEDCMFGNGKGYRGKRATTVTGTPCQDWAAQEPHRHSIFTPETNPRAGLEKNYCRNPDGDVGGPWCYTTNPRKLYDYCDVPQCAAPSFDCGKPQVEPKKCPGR
Sequence of Plasminogen (P00747 581-810 limits assumed): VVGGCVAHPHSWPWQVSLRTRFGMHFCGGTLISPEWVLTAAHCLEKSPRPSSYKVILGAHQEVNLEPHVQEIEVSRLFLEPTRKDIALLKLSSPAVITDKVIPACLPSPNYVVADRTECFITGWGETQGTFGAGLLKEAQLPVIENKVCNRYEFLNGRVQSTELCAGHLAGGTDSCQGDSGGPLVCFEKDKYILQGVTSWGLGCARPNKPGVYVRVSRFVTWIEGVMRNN
Sequence of Coagulation factor X (P00742 41-179 limits assumed): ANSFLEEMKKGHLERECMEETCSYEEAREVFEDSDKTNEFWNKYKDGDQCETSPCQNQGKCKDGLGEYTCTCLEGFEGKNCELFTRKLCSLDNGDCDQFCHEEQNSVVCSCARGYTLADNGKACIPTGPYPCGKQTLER
Sequence of Coagulation factor X (P00742 235-488 limits assumed): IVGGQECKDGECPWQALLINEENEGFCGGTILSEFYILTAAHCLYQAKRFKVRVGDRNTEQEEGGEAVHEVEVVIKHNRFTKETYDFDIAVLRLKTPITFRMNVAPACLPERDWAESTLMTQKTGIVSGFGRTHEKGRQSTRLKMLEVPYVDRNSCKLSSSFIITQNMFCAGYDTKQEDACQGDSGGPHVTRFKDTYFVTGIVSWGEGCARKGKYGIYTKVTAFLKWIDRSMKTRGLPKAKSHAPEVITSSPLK

SMILES | Ki [1] [nM] | Ki [2] [nM] | Ki [3] [nM] | Ki [4] [µM] | Ki [5] [nM] | Ki [6] [nM] | further results
CCCCCCCCCC(=O)N[C@@H](CCCN=C(N)N)C(=O)N[C@H](C(=O)N[C@@H](CCCCN)C(=O)NCc1ccc(C(=N)N)cc1)C(C)C | 3.3 |  |  |  |  |  | 
CC(C)[C@H](NC(=O)[C@H](CCCNC(=N)N)NC(=O)Cc1ccccc1)C(=O)N[C@@H](CCCNC(=N)N)C(=O)NCc1ccc(C(=N)N)cc1 |  | 0.6 | 1.6 | 6.15 | 0.75 | 312 | Ki [7]: 23 µM; Ki [8]: 40 µM; Ki [9]: 6 µM; IC50 [10]: 10 µM
CC(C)[C@H](NC(=O)[C@H](CCCN=C(N)N)NC(=O)Cc1ccccc1)C(=O)N[C@@H](CCCN=C(N)N)C(=O)NCc1cccc(CN=C(N)N)c1 | 2730 |  |  |  |  |  | 
CC(C)[C@H](NC(=O)[C@H](CCCN=C(N)N)NC(=O)Cc1ccccc1)C(=O)N[C@@H](CCCN=C(N)N)C(=O)NCc1ccc(CN=C(N)N)cc1 | 1430 |  |  |  |  |  | 
CC(C)[C@H](NC(=O)[C@H](CCCNC(=N)N)NC(=O)Cc1ccccc1)C(=O)N[C@@H](CCCNC(=N)N)C(=O)NCC1CCN(C(=N)N)CC1 | 53 | 67 | 173 | > 10 | 70 | > 10000 | Ki [7]: 50 µM; Ki [8]: 123 µM; Ki [9]: > 1000 µM
CC(C)[C@H](NC(=O)[C@H](CCCN=C(N)N)NC(=O)Cc1ccccc1)C(=O)N[C@@H](CCCN=C(N)N)C(=O)NCc1cccc(CN)c1 | 1320 |  |  |  |  |  | 
CCCCCCCCCC(=O)N[C@@H](CCCN=C(N)N)C(=O)N[C@H](C(=O)N[C@@H](CCCN=C(N)N)C(=O)NCc1ccc(C(=N)N)cc1)C(C)C | 1.6 | 3 | 6.3 | 0.968 | 3.65 | 55 | 
CC(C)[C@H](NC(=O)[C@H](CCCNC(=N)N)NC(=O)Cc1ccccc1)C(=O)N[C@@H](CCCNC(=N)N)C(=O)NCCCCCN | 553 |  |  |  |  |  | 
CC(C)[C@H](NC(=O)[C@H](CCCN=C(N)N)NC(=O)Cc1ccccc1)C(=O)N[C@@H](CCCN=C(N)N)C(=O)NCCCN=C(N)N | 63 |  |  |  |  |  | 
CC(C)[C@H](NC(=O)[C@H](CCCN=C(N)N)NC(=O)Cc1ccccc1)C(=O)N[C@@H](CCCN=C(N)N)C(=O)NCCCCN | 7490 |  |  |  |  |  | 
CC(C)[C@H](NC(=O)[C@H](CCCN=C(N)N)NC(=O)Cc1ccccc1)C(=O)N[C@@H](CCCN=C(N)N)C(=O)NCCCCCN=C(N)N | 1070 |  |  |  |  |  | 
CC(C)[C@H](NC(=O)[C@H](CCCN=C(N)N)NC(=O)Cc1ccccc1)C(=O)N[C@@H](CCCN=C(N)N)C(=O)NCC1CCNCC1 | 9710 |  |  |  |  |  | 
CC(=O)N[C@@H](CCCNC(=N)N)C(=O)N[C@H](C(=O)N[C@@H](CCCNC(=N)N)C(=O)NCc1ccc(C(=N)N)cc1)C(C)C | 1 | 2.4 | 3.6 | 5.13 | 1.7 | 1390 | 
CC(C)[C@H](NC(=O)[C@H](CCCNC(=N)N)NC(=O)Cc1ccccc1)C(=O)N[C@@H](CCCNC(=N)N)C(=O)NCCCN | 3020 |  |  |  |  |  | 
CC(C)[C@H](NC(=O)[C@H](CCCNC(=N)N)NC(=O)Cc1ccccc1)C(=O)N[C@@H](CCCNC(=N)N)C(=O)NCc1ccc(CN)cc1 | 627 |  |  |  |  |  | 
CC(C)[C@H](NC(=O)[C@H](CCCNC(=N)N)NC(=O)Cc1ccccc1)C(=O)N[C@@H](CCCNC(=N)N)C(=O)NCCCCNC(=N)N (PhAc-Arg-Val-Arg-Agmatine) | 78 | 42 | 85 | > 10 | 53 | > 10000 | Ki [7]: 102 µM; Ki [8]: 83 µM; Ki [9]: 97 µM
